Reference: US8436039B2, “Inhibitors of the ATB(0,+) transporter and uses thereof” (Georgia Health Sciences University Research Institute, Inc., priority 2008, dated 2013)
Where “and” joins values, the source holds several entries; their conditions need not be identical. Equal values may be shown once.

Target: T1, human ATB^0,+ (Homo sapiens, UniProt Q9UN76)
T1 construct: The human ATB^0,+ cDNA was cloned from an MCF7 cell (a human mammary epithelial cancer cell line) cDNA library; expressed in transfected cells; host or cells: Xenopus laevis oocytes injected with 50 ng capped cRNA
T1 sequence (Q9UN76 1-642): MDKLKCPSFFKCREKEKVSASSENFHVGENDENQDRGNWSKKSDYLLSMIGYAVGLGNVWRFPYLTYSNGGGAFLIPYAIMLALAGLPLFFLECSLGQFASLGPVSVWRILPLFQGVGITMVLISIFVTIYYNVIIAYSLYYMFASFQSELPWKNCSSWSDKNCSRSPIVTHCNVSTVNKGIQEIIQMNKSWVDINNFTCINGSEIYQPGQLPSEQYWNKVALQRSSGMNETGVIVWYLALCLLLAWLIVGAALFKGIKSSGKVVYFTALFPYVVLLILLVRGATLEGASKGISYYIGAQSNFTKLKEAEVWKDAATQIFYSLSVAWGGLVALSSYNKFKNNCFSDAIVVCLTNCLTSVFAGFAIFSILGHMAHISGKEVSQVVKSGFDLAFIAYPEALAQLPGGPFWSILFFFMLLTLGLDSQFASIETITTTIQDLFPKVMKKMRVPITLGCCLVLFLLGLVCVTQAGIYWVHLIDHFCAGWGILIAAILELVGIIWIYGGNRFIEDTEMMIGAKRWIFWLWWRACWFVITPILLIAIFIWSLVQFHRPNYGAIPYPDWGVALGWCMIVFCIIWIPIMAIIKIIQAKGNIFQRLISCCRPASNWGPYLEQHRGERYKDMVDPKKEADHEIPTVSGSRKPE
Test: Block of inward currents induced by amino acid mixture simulating plasma in X. laevis oocytes expressing human ATB^0,+
Type: cell-based
Experimental: Capped cRNA from the cloned mouse or human ATB^0,+ cDNA was synthesized using the mMESSAGE mMACHTNE kit (Ambion, Austin, Tex., U.S.A.). Mature oocytes (stage IV or V) from X. laevis were injected with 50 ng of cRNA. Uninjected oocytes served as controls. The oocytes were used for electrophysiological studies 3-6 days after cRNA injection. Electrophysiological studies were performed by the two-microelectrode voltage-clamp method (Nakanishi et al., 2001, J. Physiol. 532, 297-304). Oocytes were superfused with an NaCl-containing buffer (100 mM NaCl, 2 mM KCl, 1 mM MgCl2, 1 mM CaCl2, 3 mM Hepes, 3 mM Mes and 3 mM Tris, pH 7.5), followed by the same buffer containing tryptophan derivatives. The membrane potential was clamped at −50 mV. The differences between the steady-state currents measured in the presence and absence of substrates were considered as the substrate-induced currents. In the analysis of the saturation kinetics of substrate-induced currents, the kinetic parameter K0.5 (i.e. substrate concentration necessary for induction of half-maximal current) was calculated by fitting the values of the substrate-induced currents to the Michaelis-Menten equation. The Na^+ and Cl^− activation kinetics of substrate-induced currents were analysed by measuring the substrate-specific currents in the presence of increasing concentrations of Na^+ (concentration of Cl^− kept constant at 100 mM) or in the presence of increasing concentrations of Cl^− (concentration of Na^+ kept constant at 100 mM). In these experiments, the composition of the superfusion buffer was modified to contain 2 mM potassium gluconate, 1 mM MgSO4 and 1 mM calcium gluconate in place of KCl, MgCl2 and CaCl2 respectively. The data from these experiments were analysed by the Hill equation to determine the Hill coefficient (h; number of Na^+ and Cl^− ions involved in the activation process). The kinetic parameters were determined by using the commercially available computer program Sigma Plot, version 6.0 (SPSS, Chicago, Ill., U.S.A.). Uninjected oocytes were used to determine the currents induced by tryptophan derivatives due to entry via transporters that may be constitutively expressed in the oocytes. At a concentration of 2.5 mM, the currents induced by these compounds were in the range of 0-3 nA in uninjected oocytes. These currents were less than 2% of the corresponding currents induced in ATB^0,+ cRNA-injected oocytes. Therefore the endogenous currents associated with the constitutively expressed transporters were not considered in the analysis of kinetic parameters of ATB^0,+ transport activity.
These studies with α-methyl-DL-tryptophan as a blocker of ATB^0,+ were carried out with L-tryptophan at sub-saturating concentrations. […] Therefore, using the Xenopus oocyte heterologous expression system, we monitored the transport activity of human ATB^0,+ in the presence of an amino acid mixture consisting of 18 different amino acids, each at its respective physiological concentration found in plasma (Glew et al., 2004, Clin. Chim. Acta 342, 179-185) (Table 1). Inward currents were detected under these conditions in oocytes expressing human ATB^0,+. […] We then monitored the ability of α-methyl-DL-tryptophan to block the inward currents induced by the same mixture of amino acids in oocytes expressing human ATB^0,+ (FIG. 4B). […]

With `CC(N)(Cc1c[nH]c2ccccc12)C(=O)O` (racemic) [α-methyl-DL-tryptophan] the inhibition at 2500 µM (2.5 mM, 18 amino acids at plasma concentrations, read-out: maximal inhibition of amino acid mixture-induced currents) was roughly 85% and the IC50 (18 amino acids at normal plasma concentrations, read-out: concentration necessary to elicit 50% of maximal inhibition (IC50) of amino acid mixture-induced currents) was ~250 µM and 255 µM.
